Measurements: article PMC10096175, “An In Vitro Antimicrobial, Anticancer and Antioxidant Activity of N–[(2–Arylmethylthio)phenylsulfonyl]cinnamamide Derivatives” (Molecules, 2023)
Values after ≈ are worked out from the molar mass of the structure shown.

Experiments:
[1] = test system: 24 h biofilm already formed by MRSA strains; assay: Effect on 24 h biofilm already formed, MRSA; type: cell-based, Staphylococcus aureus; conditions: MRSA12677
[2] = test system: C. albicans ATCC 10231; assay: MIC determination, reference fungal strain (microdilution); type: cell-based; conditions: Candida albicans, ATCC10231; C. albicans ATCC 10231; read-out: MIC
[3] = in vitro; conditions: sheep, defibrinated sheep blood diluted 1:9 v/v with PBS, pH 7
[4] = test system: S. aureus ATCC 6538; assay: MIC determination, reference strain (microdilution); type: cell-based; conditions: Staphylococcus aureus, ATCC6538; S. aureus ATCC 6538; ± SD; Co-trimoxazole as sulfamethoxazole/trimethoprim; read-out: MIC
[5] = test system: S. epidermidis ATCC 14990; assay: as above; type: cell-based; conditions: Staphylococcus epidermidis, ATCC14990; S. epidermidis ATCC 14990; Co-trimoxazole as sulfamethoxazole/trimethoprim; read-out: MIC
[6] = test system: biofilm formation by MRSA clinical strains; assay: Inhibition of biofilm formation (crystal violet), MRSA; type: cell-based, Staphylococcus aureus; conditions: 2 × MIC
[7] = test system: Staphylococcus sp. and Enterococcus sp.; assay: MIC, summary statements on reference Gram-positive cocci; type: cell-based; conditions: Staphylococcus and Enterococcus species, reference Gram-positive cocci (range over strains)
Protocol: Sterile sheep blood defibrinated (GrasoBiotech). Co-trimoxazole (composition sulfamethoxazole 400 mg/trimethoprim 80 mg; WZF Polfa Poland). Ketoconazole (WZF Polfa Poland). Bacteria: Enterococcus hirae ATCC 10541 and Enterococcus faecalis ATCC 51299, Staphylococcus epidermidis ATCC 14990, Staphylococcus aureus ATCC 6538, clinical strains Staphylococcus aureus MRSA, clinical strains Staphylococcus sp. (MRCNS), clinical strain Staphylococcus epidermidis MRSE, clinical strain Enterococcus sp., Corynebacterium diphtheriae ZMF, Bacillus subtilis ATCC 6633, Escherichia coli ATCC 8739, Candida albicans ATCC 10231. Brain-heart infusion broth (BHI, Becton Dickinson) for Enterococcus hirae ATCC 10541 and Enterococcus faecalis ATCC 51299, BHI supplement with 10% bovine serum for Bacillus subtilis, Corynebacterium diphtheriae ZMF, Staphylococcus epidermidis ATCC 14990, Staphylococcus aureus ATCC 6538, clinical strains Staphylococcus aureus MRSA, clinical strains Staphylococcus sp. (CNS), clinical strain Staphylococcus epidermidis MRSE grew in Mueller-Hinton broth (MH cation-adjusted, Becton Dickinson) in an aerobic atmosphere at 37 °C for 48 h, in an aerobic atmosphere at 37 °C for 72 h. Candida albicans grew in Sabourauda broth (Sb, Becton Dickinson), in an aerobic atmosphere at 37 °C for 72 h. After determination of the bacterial viability, BHI blood agar plates, MH agar plates, and Sb agar plates were used.
The MIC determination for the reference and clinical strains was performed based on the methodology described by Kula et al.. The dry test samples were dissolved in dimethyl sulfoxide (DMSO) and diluted in water, resulting in a finale concentration of about 500 µg/mL. These solutions were diluted and added to the first well of each microtiter line. Dilution in geometric progression was done by transferring the mixture/dilution (100 μL) from the first to the twelfth well. An aliquot (100 μL) was discarded from the twelfth well. The final concentration of the samples used in the antimicrobial activity assay ranged from 125 to 0.006 µg/mL. Co-trimoxazole (for bacteria), with the composition sulfamethoxazole 400 mg/trimethoprim 80 mg was used as a reference compound in the concentration range of 20 000/4000 to 1/0.2 µg/mL. Ketoconazole (for fungi) was used as a reference compound in the concentration range of 125 to 0.006 µg/mL. Tests were incubated in adequate conditions described by Kula et al.. Diluent concentration had no effect on the activity of the tested compounds. All experiments were carried out three times.

[8] = test system: cancer cells (HeLa, SKOV-3, MCF-7); assay: MTT assay, summary statements on the cancer cells; type: cell-based; conditions: Homo sapiens, cell line not specified

| MIC [2] [µg/mL] | MIC [4] [µg/mL] | MIC [5] [µg/mL] | MIC [7] [µg/mL] | IC50 ([8]; MTT) [µg/mL] | IC50 ([8]; µg/mL bound converted) [µM] | SMILES | Inhibition of biofilm already formed, in relation to the control ([1]; 2 × MIC and 4 × MIC) | hemolysis at 24 h, 31.25 µg/mL [3] [%] | Inhibition of biofilm already formed, in relation to the control ([1]; 2 × MIC) | Inhibition of biofilm formation compared with the control ([6]; MRSA13318) [%] | Inhibition of biofilm formation compared with the control ([6]; MRSA21804) [%] |
| --- | --- | --- | --- | --- | --- | --- | --- | --- | --- | --- | --- |
| > 125 | 2 ± 0.58 (≈ 3.6 µM) | 1 ± 0.29 (≈ 1.8 µM) | – | – | – | COc1ccc(/C=C/C(=O)NS(=O)(=O)c2cc(C)c(Cl)cc2SCc2cccc3ccccc23)cc1F [Compound 16e, (E)–N–{4–Chloro–5–methyl–2–[(naphthalen–1–yl)methylthio]phenylsulfonyl}–3–(3–fluoro–4–methoxyphenyl)acrylamide] | about 53% | 12 to 20 | – | – | – |
| > 125 | 1 ± 0.29 (≈ 1.75 µM) | 1 ± 0.29 (≈ 1.75 µM) | 1 to 2 (≈ 1.75 to 3.5 µM) | – | – | Cc1cc(S(=O)(=O)NC(=O)/C=C/c2ccc(Cl)cc2)c(SCc2cc3c(cc2Cl)OCO3)cc1Cl [Compound 17c, (E)–N–{4–Chloro–2–[(6–chlorobenzo[d][1,3]dioxol–5–yl)methylthio]–5–methylphenylsulfonyl}–3–(4–chlorophenyl)acrylamide] | – | 12 to 20 | about 40% | 98 | 61 |
| > 125 | 1 (≈ 1.84 µM) | 1 ± 0.29 (≈ 1.84 µM) | 1 to 2 (≈ 1.84 to 3.69 µM) | < 10 | ≤ 20 | Cc1cc(S(=O)(=O)NC(=O)/C=C/c2ccc(Cl)cc2)c(SCc2cccc3ccccc23)cc1Cl [Compound 16d, (E)–N–{4–Chloro–5–methyl–2–[(naphthalen–1–yl)methylthio]phenylsulfonyl}–3–(4–chlorophenyl)acrylamide] | – | – | – | – | – |
